{"source": "paper PMC10845965", "about": "“Gold(I) ion and the phosphine ligand are necessary for the anti-Toxoplasma gondii activity of auranofin” (Microbiology Spectrum, 2024)", "key": {"T. gondii in HFF": {"system": "T. gondii in HFF", "assay": "Egress assay (LDH release)", "type": "cell-based, Toxoplasma gondii", "settings": "30 hours infection, then 40 min with A23187 5 µM, zaprinast 57 µM or auranofin 5 µM", "experimental": "The egress assay was modified from previously published methods to measure lactate dehydrogenase (LDH) content as a function of egress (host membrane damage induced by parasite egress) ([33], [34]). Confluent monolayers of HFF in a 24-well plate were inoculated with 5 × 10^5 parasites (freshly mechanically released by needle and filtered through a 3 µm filter) for 30 hours before each drug treatment in three technical triplicates. These infected HFF monolayers were rinsed with 37°C Ringer’s solution (Ward’s Science) three times and supplied with 5 µM calcium ionophore A23187 (ACROS), 57 µM Zaprinast (Alfa Aesar), 5 µM auranofin (Enzo Life Sciences), or DMSO control (all in 5 µl) for 40 min in 5% CO2 and 37°C. The culture supernatant was collected from wells and centrifuged at 4°C and 500 g for 5 min. The solution was kept at 4°C and assayed immediately for the LDH content. The A490 reading is directly proportional to a known amount of LDH (standard curve) (CytoTox 96 Nonradioactive Cytotoxicity Assay, Promega). Egress induced by each drug is presented as a relative value after subtracting control levels of LDH induced by DMSO alone (the solvent for all drugs included in this assay) from the levels of LDH induced by the drugs. A t-test to determine the statistical difference between the relative egress triggered by auranofin and A23187 or auranofin and Zaprinast from three independent experiments was used."}, "[1]": {"system": "YFP+ RH parasites (T. gondii) in HFF", "assay": "Replication assay", "type": "cell-based, Toxoplasma gondii", "experimental": "Confluent HFF monolayers were infected with 5 × 10^5 YFP+ RH parasites in coverslips. Following 1-hour incubation at 37°C to allow for invasion, the monolayer was rinsed with PBS, and D10 in DMSO (control) or auranofin containing (2.5 µM) media was added back. Coverslips were then incubated for 24 hours to allow for parasite replication. Coverslips were then fixed in 4% paraformaldehyde and mounted with DAPI-containing mounting media. Parasites were identified as DAPI+/YFP+ under fluorescence microscopy. The number of parasites per parasitophorous vacuole was counted across 10 random fields of view per coverslip. At least 100 parasitophorous vacuoles (PV) per condition were counted from three independent experiments. Results were grouped into the following categories according to the number of parasites per PV: 1, 2, 4, and >4 parasites. A chi-square trend test was used to determine the statistical difference between the PV category of the control and auranofin treatment from three independent experiments."}, "HFF host cells": {"system": "HFF host cells", "assay": "Host cell viability and TD50 determination", "type": "cell-based, human", "settings": "5 days incubation, tetrazolium assay", "experimental": "Confluent monolayers of HFF host cells (approximately 1 × 10^4) plated in clear bottom 96-well plates were treated with twofold dilutions of compounds of interest. After 5 days of incubation, 15 µL of dye solution (tetrazolium salt) was added to each well. The plates were incubated at 37°C for 4 hours; then, the reaction was stopped to solubilize the formazan product (Cell Titer 96 Nonradioactive Cell Proliferation Assay Promega). Absorbance at 570 ʎ (A570) was recorded using a multimode microplate plate reader (Molecular Devices Spectramax i5, SoftMax Pro 7.0.2 Software). The A570 absorbance reading is directly proportional to the number of viable cells. The values are presented as percentages of cell viability relative to the untreated controls (defined as 100% survival) and plotted against the log of compound concentrations. The log (auranofin derivative) vs cell viability curve with variable slope was generated to calculate TD50 values."}, "[2]": {"system": "extracellular T. gondii RH parasites", "assay": "Parasite size by flow cytometry (forward scatter)", "type": "cell-based, Toxoplasma gondii", "settings": "auranofin 2.5 µM", "experimental": "(§1) A confluent monolayer of HFF was infected with purified RH parasites (freshly mechanically released by needle and filtered through a 3 µm filter). The monolayer remained undisturbed for 24 hours to allow for invasion and replication. On the day of treatment, extracellular parasites were mechanically released and harvested after differential centrifugation ([35]) at 35 × g for 5 minutes to prevent parasite loss before processing. The supernatant was then collected and centrifuged at 1,350 × g for 10 minutes to pellet the extracellular parasites. Parasites were plated in a 12-well plate (2.7 × 10^7 per well) into 1 mL of D10 in DMSO (control) or auranofin (2.5 µM) containing media and incubated for 24–48 hours at 37°C with 5% CO2 before collection.\nParasite size after treatment with auranofin was determined by flow cytometry (forward scattering). At the end of each incubation time, parasites (1 × 10^5) were resuspended in 1 mL of PBS to prepare them for flow cytometry."}, "RH T. gondii": {"system": "RH T. gondii", "assay": "Plaque assay and IC50 determination", "type": "cell-based, Toxoplasma gondii", "settings": "plaque assay, 5 days; for inhibition of T. gondii growth in vitro: 0–40 µM", "experimental": "We measured the inhibition of parasite growth by plaque assay as modified from a previously established method ([27], [28]). Confluent monolayers of HFF in six-well plates were inoculated with 1 × 10^2 parasites of RH T. gondii. Immediately after, each well received D10 containing specified concentrations of each compound. Plates were incubated undisturbed for 5 days at 37°C in a humidified incubator with 5% CO2. On the fifth day, each well was rinsed once with phosphate-buffered saline (PBS), fixed with 4% paraformaldehyde (15 min at room temperature), and stained with crystal violet for 2–3 min. Plaques (visualized as irregular clear areas of cell lysis against the violet background of intact host cells) were enumerated for each well. To generate the inhibition curve, plaque numbers (represented as a percentage of plaques relative to the no drug control) were plotted vs drug concentration. The IC50 value was calculated from the inhibitor vs normalized response curve with variable slope. The results represented the average of three independent IC50 assays ± standard error of the mean."}, "[3]": {"system": "extracellular T. gondii RH parasites", "assay": "Annexin V assay (phosphatidylserine externalization)", "type": "cell-based, Toxoplasma gondii", "settings": "auranofin 2.5 µM, 24 hours; control 11.2 ± 2.937", "experimental": "as §1\nGiven the smaller size of parasites after auranofin treatment, we evaluated whether T. gondii death occurred by apoptosis via Annexin V assays (Invitrogen). After 24 hours of treatment, parasites were collected, washed with PBS, and resuspended in Annexin binding buffer (10 mM HEPES, 140 mM NaCl, and 2.5 mM CaCl2, pH 7.4) at a concentration of 10^6 parasites per mL. One hundred microliters of this parasite suspension was stained with Annexin V-Alexa fluor conjugate before flow cytometry analysis. A t-test was used to determine the statistical difference between control or auranofin treatment groups from three independent experiments."}, "[4]": {"system": "YFP+ RH parasites (T. gondii) invading HFF", "assay": "Invasion assay", "type": "cell-based, Toxoplasma gondii", "experimental": "We performed invasion assays with or without pre-treatment of T. gondii tachyzoites with auranofin, as modified from previously described assays ([28][–][31]). We used RH parasites expressing YFP ([32]). First, we determine the best concentration of auranofin to achieve stable host cell morphology and viability (HFF) while maximizing the effect of auranofin in T. gondii by titration of auranofin (doses ranging from 1 to 5 µM). The best auranofin dose fitting our criteria was 3 µM. Therefore, we performed a modified invasion assay using 2.5 × 10^6 parasites freshly lysed YFP+ RH parasites ([29]) that were filtered and centrifuged before each assay as follows: […]\nAfter the 30-min invasion, all host cells were washed with PBS and fixed with 4% paraformaldehyde, blocked with 3% bovine serum albumin (BSA), and then incubated with anti-SAG-1 antibody (DG52) (David Sibley, Washington University in St. Louis) ([4]) for 1 hour, followed by incubation with goat anti-mouse IgG conjugated to Alexa-594 fluorophore (A19069, Thermo Fisher). For quantification, eight randomly selected fields (with a minimum of 300 parasites) were counted for each sample. […] The invasion rate was calculated by dividing the number of intracellular parasites by the total number of parasites counted."}, "[5]": {"system": "Leishmania spp. (promastigotes and amastigotes)", "set-up": "method as in PMID 24328400", "settings": "cited from earlier work"}, "[6]": {"settings": "Fig 7, unit inferred, read-out: IC50"}, "[7]": {"settings": "HFF infected with RH T. gondii, read-out: IC50 (inhibition of parasite growth)"}}, "note": "Where “and” joins values, the source holds several entries; their conditions need not be identical. Equal values may be shown once. Entries after “also recorded” stand apart in the source; their conditions may differ. Read-outs that look alike come from different tables or passages of the source.", "data": [{"smiles": "CNc1ccc2oc(C[C@H]3O[C@@]4(CC[C@H]3C)O[C@H]([C@H](C)C(=O)c3ccc[nH]3)[C@H](C)C[C@H]4C)nc2c1C(=O)O", "note": "[A23187]", "values": [{"measurement": "relative egress level (LDH, normalized to DMSO)", "setting": "T. gondii in HFF", "value": "0.4533 ± 0.01148"}]}, {"smiles": "CC(=O)OC[C@H]1O[C@@H]([S-])[C@H](OC(C)=O)[C@@H](OC(C)=O)[C@@H]1OC(C)=O.CCP(CC)CC.[Au+]", "note": "[Auranofin]", "values": [{"measurement": "host cell monolayer integrity", "setting": "[1]; HFF monolayer, 24 hours of auranofin treatment", "value": "did not show changes in the monolayer integrity"}, {"measurement": "effect on parasite replication (parasites per parasitophorous vacuole)", "setting": "[1]; auranofin 2.5 µM for 24 hours after 1 hour invasion", "value": "did not inhibit parasite replication"}, {"measurement": "TD50 (cytotoxicity in host cells)", "setting": "HFF host cells", "value": 5.14, "unit": "µM"}, {"measurement": "parasite size (FSC-H)", "setting": "[2]; 24 hours, control 201.2 ± 4.064", "value": "152.7 ± 8.225"}, {"measurement": "parasite size (FSC-H)", "setting": "[2]; 48 hours, control 169.9 ± 66.25", "value": "123.5 ± 7.339"}, {"measurement": "IC50", "setting": "RH T. gondii; [6]", "value": 560, "unit": "nM"}, {"measurement": "phosphatidylserine externalization (PS) by Annexin V assay", "setting": "[3]", "value": "29.16 ± 3.615 relative fluorescent units"}, {"measurement": "invasion rate (T. gondii that successfully invaded host cells)", "setting": "[4]; parasites pre-treated with auranofin 3 µM for 30 min before invasion, control 35%", "value": 18, "unit": "%"}, {"measurement": "invasion rate (T. gondii that successfully invaded host cells)", "setting": "[4]; without pre-treatment, auranofin 3 µM during 30 min invasion, control 59%", "value": 60, "unit": "%"}, {"measurement": "relative egress level (LDH, normalized to DMSO)", "setting": "T. gondii in HFF", "value": "0.2768 ± 0.034"}, {"measurement": "relative egress level (LDH, normalized to DMSO)", "setting": "T. gondii in HFF; listed as auranofin", "value": "0.2768 ± 0.03435 and 0.3272 ± 0.009"}]}, {"smiles": "OC[C@H]1O[C@H]([S-])[C@H](O)[C@@H](O)[C@@H]1O.[Au+]", "note": "[Aurothioglucose, aurothioglucose]", "values": [{"measurement": "inhibition of T. gondii growth in vitro", "setting": "RH T. gondii", "value": "did not display inhibitory activity"}, {"measurement": "inhibition of T. gondii growth in vitro", "setting": "RH T. gondii; listed as aurothioglucose", "value": "neither aurothioglucose nor aurothiomalate inhibited the growth"}]}, {"smiles": "O=C(O)CC([S-])C(=O)O.[Au+]", "note": "(stereo not drawn) [Aurothiomalate, aurothiomalate]", "values": [{"measurement": "inhibition of T. gondii growth in vitro", "setting": "RH T. gondii", "value": "neither aurothioglucose nor aurothiomalate inhibited the growth; also recorded: did not display inhibitory activity"}]}, {"smiles": "[Cl][Au][PH](Cc1ccccc1)(c1ccccc1)c1ccccc1", "note": "[Compound 6]", "values": [{"measurement": "TD50 (cytotoxicity in host cells)", "setting": "HFF host cells", "value": 4.87, "unit": "µM"}, {"measurement": "IC50", "setting": "RH T. gondii; [6]", "value": 450, "unit": "nM"}, {"measurement": "IC50", "setting": "RH T. gondii; [7]", "value": 460, "unit": "nM"}]}, {"smiles": "[Cl][Au].c1ccc(P(c2ccccc2)c2ccccc2)cc1", "note": "[Compound 31]", "values": [{"measurement": "TD50 (cytotoxicity in host cells)", "setting": "HFF host cells", "value": 178, "unit": "µM"}, {"measurement": "IC50", "setting": "RH T. gondii; [7]", "value": 1410, "unit": "nM"}, {"measurement": "toxicity to host cells compared with auranofin", "setting": "[5]", "value": "less toxic to host cells than auranofin and compounds 6, 10, and 39"}, {"measurement": "antiparasitic activity against Leishmania spp. compared with auranofin", "setting": "[5]; extracellular and intracellular forms", "value": "higher IC50 than auranofin"}]}, {"smiles": "CCCOc1ccccc1-c1nc2nn[nH]c2c(=O)[nH]1", "note": "[Zaprinast, zaprinast]", "values": [{"measurement": "relative egress level (LDH, normalized to DMSO)", "setting": "T. gondii in HFF", "value": "0.3272 ± 0.009"}, {"measurement": "relative egress level (LDH, normalized to DMSO)", "setting": "T. gondii in HFF; listed as zaprinast", "value": "0.2768 ± 0.034"}]}]}
